{"source": "patent US20070258972A1", "about": "“Combination of a Histone Deacetylase Inhibitor with a Death Receptor Ligand” (priority 2003, published 2007)", "key": {"Primary AML cells": {"test_system": "Primary AML cells", "assay": "Apoptosis of primary AML cells by annexin V staining and flow cytometry", "type": "cell-based, human", "conditions": "for % of Apoptosis: LAQ824 100 nM and/or Apo-2L/TRAIL 100 ng/mL, 24 hours", "source_text": "Jurkat T cell leukemia and SKW6.4 B lymphoblast cells are obtained from American Tissue Culture Collection (Manassas, Va.). HL-60/Bcl-2 cells with ectopic over-expression of Bcl-2 and the control HL-60/Neo cells are created and maintained in culture as previously described. Primary leukemia blasts from six patients with AML in relapse are harvested, as previously described, from the peripheral blood or bone marrow after informed consent, as a part of a protocol study sanctioned by the local Institutional Review Board. The purity of leukemia blasts in the samples prior to culture in LAQ824 and/or Apo-2L/TRAIL was at least 80% or more, as determined by morphologic evaluation after Wright staining.\n(§1) After drug treatments, cells are resuspended in 100 μL of the staining solution containing annexin-V fluorescein and propidium iodide in a HEPES buffer (Annexin-V-FLUOS Staining Kit, Boehringer-Mannheim, and Indianapolis, Ind.). Following incubation at room temperature for 15 minutes, annexin V positive cells are estimated by flow cytometry, as previously described."}, "DR5": {"test_system": "DR5", "assay": "DR5 expression on the cell membrane by flow cytometry, primary AML sample", "type": "cell-based, human"}, "primary AML blasts": {"test_system": "primary AML blasts", "assay": "Western analyses of proteins, primary AML blasts", "type": "cell-based, human", "description": "(§2) Western analyses of DR4, DR5, Apo-2L, FADD, Caspase-8, c-FLIPL & S, BID, Caspase-9, Caspase-3, PARP, XIAP, clAP1, survivin and β-actin are performed using specific anti-sera or monoclonal antibodies according to previously reported protocols. Horizontal scanning densitometry was performed on Western blots by using acquisition into Adobe Photo Shop (Apple, Inc., Cupertino, Calif.) and analysis by the NIH Image Program (U.S. National Institutes of Health, Bethesda, Md.). The expression of β-actin was used as a control."}, "Jurkat and SKW 6.4 cells [1]": {"test_system": "Jurkat and SKW 6.4 cells", "assay": "Western analyses of proteins, Jurkat and SKW 6.4 cells", "type": "cell-based, human", "description": "as §2"}, "SKW 6.4 and Jurkat cells": {"test_system": "SKW 6.4 and Jurkat cells", "assay": "Flow cytometry analysis of cell cycle status", "type": "cell-based, human", "conditions": "24 hours", "description": "The flow cytometric evaluation of the cell cycle status is performed according to a previously described method. The percentage of cells in the G1, S-phase, and G2/M phases are calculated using Multicycle software (Phoenix Flow Systems, San Diego, Calif.)."}, "Jurkat and SKW 6.4 cells [2]": {"test_system": "Jurkat and SKW 6.4 cells", "assay": "Apoptosis assessment by annexin-V staining, Jurkat and SKW 6.4 cells", "type": "cell-based, human", "conditions": "10-200 nM, 24 hours; more in Jurkat than in SKW 6.4 cells", "description": "as §1"}, "[3]": {"test_system": "SKW 6.4 and Jurkat leukemia cells", "assay": "Multi-probe RNase protection assay of mRNA levels", "type": "cell-based, human", "description": "A RiboQuant Multi-Probe RNase Protection Assay System was used according to the manufacturer's instructions (BD/PharMingen, San Diego, Calif.). A probe set, hAPO-3d (FLICE, FAS, DR5, DR4 and TRAIL) was used for T7 RNA-polymerase directed synthesis of [α-32P] UTP-labeled antisense RNA probes. The probe set contains the DNA templates, including glyceraldehyde-3-phosphate dehydrogenase (GAPDH) used as internal control. The probes (1×10^6 cpm/reaction) are hybridized with 20 μg of RNA isolated from the SKW 6.4 and Jurkat leukemia cells, following treatment with 100 nM LAQ824 at different time points using the RNeasy Mini kit (Qiagen, Valencia, Calif.). After overnight hybridization, samples are digested with RNase to remove single-stranded (non-hybridized) RNA. The remaining probes are resolved on 5% de-naturing polyacrylamide gel and analyzed by autoradiography."}, "c-FLIPL mRNA": {"test_system": "c-FLIPL mRNA", "assay": "RT-PCR assay for c-FLIP mRNA levels", "type": "cell-based", "conditions": "8 hours", "description": "Total RNA was isolated from cells utilizing a TRIZOL LS reagent (Invitrogen Carlsbad, Calif.). RT-PCR analysis was performed, as previously described. The RNA (1.0 μg) was reverse-transcribed into cDNA by using SuperScript II RT (Invitrogen Carlsbad, Calif.) according to the manufacturer's protocol. For the c-FLIP PCR, the primer sequences are as follows, forward primer: 5′-GCCCGAGCACCGAGACTACG-3′; and reverse primer: 5′-AGG GAC GGD GAG CTG TGA GAC TG-3′. β-actin forward primer: 5′-CTA CM TGA GCT GCG TGT GG-3′; and reverse primer: MG GM GGC TGG MG AGT GC. The PCR reaction containing 0.2 mM concentration of dATP, dCTP, dGTP, dTTP and 200 nM concentration of each c-FLIP primers and 50 nM of each β-actin primers, 1.5 mM of MgCl2, and 10×PCR buffer containing Tris-HCL (pH 8.0), 500 mM KCL and 1 U of Tag polymerase (Invitrogen Carlsbad, Calif.). The reaction is performed at 95° C. for 5 minutes, and is followed by 30 cycles of de-naturating at 95° C. for 45 seconds, annealing at 52° C. for 45 seconds and the extension at 72° C. for one minute. The PCR products are separated on a 2% agarose/eithidium bromide gel. The size of the amplified products was 395 bases pairs for the c-FLIP and 527 base pairs for β-actin product, respectively."}, "HDAC": {"test_system": "HDAC", "conditions": "5-250 nM; HeLa cell nuclear extracts; previously reported; cited from earlier work"}, "[4]": {"conditions": "8 hours or 16 hours, densitometry, GAPDH loading control"}}, "data": [{"smiles": "O=C(/C=C/c1ccc(CN(CCO)CCc2c[nH]c3ccccc23)cc1)NO", "note": "[LAQ824, N-hydroxy-3-[4-[[(2-hydroxyethyl)[2-(1H-indol-3-yl)ethyl]-amino]methyl]phenyl]-2E-2-propenamide]", "values": [{"measurement": "% of Apoptosis", "setting": "Primary AML cells; Patient 1 primary AML cells, control 7.0", "result": 14.5, "unit": "%"}, {"measurement": "% of Apoptosis", "setting": "Primary AML cells; Patient 2 primary AML cells, control 12.0", "result": 29.5, "unit": "%"}, {"measurement": "% of Apoptosis", "setting": "Primary AML cells; Patient 3 primary AML cells, control 8.0", "result": 22.9, "unit": "%"}, {"measurement": "% of Apoptosis", "setting": "Primary AML cells; Patient 4 primary AML cells, control 10.0", "result": 27.9, "unit": "%"}, {"measurement": "% of Apoptosis", "setting": "Primary AML cells; Patient 5 primary AML cells, control 6.0", "result": 57.8, "unit": "%"}, {"measurement": "% of Apoptosis", "setting": "Primary AML cells; Patient 6 primary AML cells, control 7.0", "result": 7.9, "unit": "%"}, {"measurement": "apoptosis of primary AML blasts (in words)", "setting": "Primary AML cells; six samples, relapsed AML, Apo-2L/TRAIL 100 ng/mL, LAQ824 100 nM", "result": "induces more apoptosis"}, {"measurement": "DR5 expression on the cell membrane", "setting": "DR5; 100 nM LAQ824, baseline 17.5%", "result": "33.2 % of cells"}, {"measurement": "DR5 expression on the cell membrane", "setting": "DR5; 250 nM LAQ824, baseline 17.5%", "result": "62.4 % of cells"}, {"measurement": "DR4 and DR5 levels", "setting": "primary AML blasts", "result": "increases"}, {"measurement": "levels of FLIPL and c-FLIPS", "setting": "primary AML blasts", "result": "down-regulates"}, {"measurement": "acetylation of histones H3 and H4", "setting": "primary AML blasts; 100 nM or 250 nM, 24 hours", "result": "induces"}, {"measurement": "acetylation of histone H3 and histone H4", "setting": "Jurkat and SKW 6.4 cells [1]; 50 nM or 200 nM, 24 hours, Jurkat and SKW 6.4 cells", "result": "increased"}, {"measurement": "intracellular levels of p27", "setting": "Jurkat and SKW 6.4 cells [1]; 50 nM, SKW 6.4 and Jurkat cells", "result": "increase"}, {"measurement": "p27 levels", "setting": "Jurkat and SKW 6.4 cells [1]; 200 nM, both cell-types", "result": "attenuated"}, {"measurement": "Apo-2L/TRAIL, DR4 and DR5 levels", "setting": "Jurkat and SKW 6.4 cells [1]; 24 hours, SKW 6.4 and Jurkat cells", "result": "induces"}, {"measurement": "levels of Bcl-xL, Bcl-2, XIAP, c-IAP and survivin", "setting": "Jurkat and SKW 6.4 cells [1]; SKW 6.4 and Jurkat cells", "result": "attenuates"}, {"measurement": "levels of FLIPL and FLIPS", "setting": "Jurkat and SKW 6.4 cells [1]; SKW 6.4 and Jurkat cells", "result": "attenuates"}, {"measurement": "levels of p21", "setting": "Jurkat and SKW 6.4 cells [1]; SKW 6.4 cells", "result": "dose-dependent increase"}, {"measurement": "cells in the S phase of the cell cycle", "setting": "SKW 6.4 and Jurkat cells", "result": "decline"}, {"measurement": "percentage of cells in the G1 phase", "setting": "SKW 6.4 and Jurkat cells", "result": "markedly increases"}, {"measurement": "apoptosis, positive staining for annexin V", "setting": "Jurkat and SKW 6.4 cells [2]", "result": "induces apoptosis in a dose-dependent manner"}, {"measurement": "mRNA levels of Apo-2L/TRAIL and caspase-8 (FLICE)", "setting": "[3]", "result": "only minimally affected"}, {"measurement": "mRNA expression of DR5, increase", "setting": "[3]; [4]", "result": 2.4, "unit": "fold"}, {"measurement": "mRNA expression of FAS, increase", "setting": "[3]; [4]", "result": 1.5, "unit": "fold"}, {"measurement": "DR4 mRNA levels, increase", "setting": "[3]; only in SKW 6.4 cells", "result": 2.2, "unit": "fold"}, {"measurement": "inhibition of the mRNA level of c-FLIPL", "setting": "c-FLIPL mRNA", "result": 75, "unit": "%"}, {"measurement": "in vitro HDAC activity", "setting": "HDAC", "result": "inhibits the in vitro HDAC activity in a dose-dependent manner"}]}]}
